Results reported in paper PMC11904993, “Humanized Candida and NanoBiT Assays Expedite Discovery of Bdf1 Bromodomain Inhibitors With Antifungal Potential” (Advanced Science, 2025).
Values joined by “and” are separate entries in the source; they are usually repeats but may differ in a detail not shown here. Identical values can stand only once. Like-named read-outs stand apart in the source and are kept apart here.

Experiments:
CgBdf1 BD2 = CgBdf1 BD2 (Candida glabrata, UniProt Q6FWV7); experiment: biochemical; assay type: binding, C. glabrata
human Brd4 BD2 = molecular target: T1, human Brd4 BD2 (Homo sapiens, UniProt O60885); experiment: HTRF assay, inhibition of H4ac4 peptide binding; conditions: for %HTRF Signal hBrd4 BD2: Fig 2E
T1 construct: GST‐tagged BD2 (residues 349–460) from human Brd4 (UniProt ID O60885); purchased Reaction Biology Corp

C. auris Bdf1 BD1 = C. auris Bdf1 BD1 (Candidozyma auris (Candida auris), UniProt A0AAW0VEM6); experiment: HTRF assay, inhibition of H4ac4 peptide binding
C. auris Bdf1 BD2 = C. auris Bdf1 BD2 (Candidozyma auris (Candida auris), UniProt A0AAW0VEM6); experiment: HTRF assay, inhibition of H4ac4 peptide binding; conditions: CauBD2, Exp1-3, read-out: Percent HTRF Signal
C. auris Bdf1 BD2, sequence (A0AAW0VEM6 entry or part of it): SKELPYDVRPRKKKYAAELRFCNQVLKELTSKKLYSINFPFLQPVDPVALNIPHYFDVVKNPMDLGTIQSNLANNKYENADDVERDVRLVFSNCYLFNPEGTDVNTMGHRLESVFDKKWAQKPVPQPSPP

C. auris Bdf1 BD1, sequence (A0AAW0VEM6 entry or part of it): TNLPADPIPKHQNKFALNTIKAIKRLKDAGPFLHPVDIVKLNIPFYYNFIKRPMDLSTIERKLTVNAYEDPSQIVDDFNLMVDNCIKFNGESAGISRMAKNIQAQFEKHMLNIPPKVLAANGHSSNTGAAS
CgBdf1 BD2, sequence (Q6FWV7 entry or part of it): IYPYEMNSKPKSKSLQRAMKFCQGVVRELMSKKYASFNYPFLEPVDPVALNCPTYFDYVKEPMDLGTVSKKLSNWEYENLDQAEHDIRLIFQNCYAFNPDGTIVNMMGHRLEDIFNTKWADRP

Cc1ccc(-c2nnc(C)c(NCc3ccc(C)o3)n2)cc1 [Compound 24c, 6‐methyl‐N‐((5‐methylfuran‐2‐yl)methyl)‐3‐(p‐tolyl)‐1,2,4‐triazin‐5‐amine]
activity at 0.002 µM (CgBdf1 BD2; 24 h, Fig 2E, 0.002 microM, read-out: %HTRF Signal CgBdf1 BD2): 108% | activity at 0.005 µM (CgBdf1 BD2; 24 h, Fig 2E, 0.005 microM, read-out: %HTRF Signal CgBdf1 BD2): 102% | activity at 0.013 µM (CgBdf1 BD2; 24 h, Fig 2E, 0.013 microM, read-out: %HTRF Signal CgBdf1 BD2): 118% | activity at 0.033 µM (CgBdf1 BD2; 24 h, Fig 2E, 0.033 microM, read-out: %HTRF Signal CgBdf1 BD2): 109% | activity at 0.082 µM (CgBdf1 BD2; 24 h, Fig 2E, 0.082 microM, read-out: %HTRF Signal CgBdf1 BD2): 99.8% | activity at 0.205 µM (CgBdf1 BD2; 24 h, Fig 2E, 0.205 microM, read-out: %HTRF Signal CgBdf1 BD2): 104% | activity at 0.512 µM (CgBdf1 BD2; 24 h, Fig 2E, 0.512 microM, read-out: %HTRF Signal CgBdf1 BD2): 101% | activity at 1.28 µM (CgBdf1 BD2; 24 h, Fig 2E, 1.280 microM, read-out: %HTRF Signal CgBdf1 BD2): 93.8% | activity at 3.2 µM (CgBdf1 BD2; 24 h, Fig 2E, 3.200 microM, read-out: %HTRF Signal CgBdf1 BD2): 83.5% | activity at 8 µM (CgBdf1 BD2; 24 h, Fig 2E, 8.000 microM, read-out: %HTRF Signal CgBdf1 BD2): 60.2% | IC50 (CgBdf1 BD2; Fig 2C original data, analogs of 24, single experiments Exp1-3, read-out: pIC50 CgBD2 (converted)): 13.9 µM and 12 µM and 9.53 µM | IC50 (CgBdf1 BD2; Fig 2E, mean and s.d., three independent experiments, read-out: IC50 (μM) CgBD2): 11.8 µM and 12 µM | IC50 (human Brd4 BD2): > 20 µM | %HTRF Signal hBrd4 BD2 (human Brd4 BD2; 0.002 microM): 101.87% and 97.60% and 95.93% | %HTRF Signal hBrd4 BD2 (human Brd4 BD2; 0.005 microM): 107.00% and 95.29% and 98.83% | %HTRF Signal hBrd4 BD2 (human Brd4 BD2; 0.013 microM): 110.74% and 98.44% and 97.06% | %HTRF Signal hBrd4 BD2 (human Brd4 BD2; 0.033 microM): 106.00% and 100.34% and 100.19% | %HTRF Signal hBrd4 BD2 (human Brd4 BD2; 0.082 microM): 114.59% and 102.11% and 105.40% | %HTRF Signal hBrd4 BD2 (human Brd4 BD2; 0.205 microM): 102.46% and 102.49% and 103.89% | %HTRF Signal hBrd4 BD2 (human Brd4 BD2; 0.512 microM): 110.69% and 102.99% and 100.42% | %HTRF Signal hBrd4 BD2 (human Brd4 BD2; 1.280 microM): 110.63% and 103.66% and 98.46% | %HTRF Signal hBrd4 BD2 (human Brd4 BD2; 3.200 microM): 107.03% and 99.12% and 95.88% | %HTRF Signal hBrd4 BD2 (human Brd4 BD2; 8.000 microM): 99.23% and 96.86% and 85.81% | %HTRF Signal hBrd4 BD2 (human Brd4 BD2; 20.000 microM): 80.43% and 88.19% and 83.66% | remaining activity at 0.0021 µM (C. auris Bdf1 BD1; CauBD1, 24c 0.0021 microM, Exp1-3, read-out: Percent HTRF Signal): 100% | remaining activity at 0.0052 µM (C. auris Bdf1 BD1; CauBD1, 24c 0.0052 microM, Exp1-3, read-out: Percent HTRF Signal): 94.1% | remaining activity at 0.013 µM (C. auris Bdf1 BD1; CauBD1, 24c 0.013 microM, Exp1-3, read-out: Percent HTRF Signal): 99.7% | remaining activity at 0.033 µM (C. auris Bdf1 BD1; CauBD1, 24c 0.033 microM, Exp1-3, read-out: Percent HTRF Signal): 98.7% | remaining activity at 0.082 µM (C. auris Bdf1 BD1; CauBD1, 24c 0.082 microM, Exp1-3, read-out: Percent HTRF Signal): 99.6% | remaining activity at 0.2 µM (C. auris Bdf1 BD1; CauBD1, 24c 0.20 microM, Exp1-3, read-out: Percent HTRF Signal): 104% | remaining activity at […] (C. auris Bdf1 BD1; CauBD1, 24c 0.51 microM, Exp1-3, read-out: Percent HTRF Signal): 96.3% | remaining activity at 1.28 µM (C. auris Bdf1 BD1; CauBD1, 24c 1.28 microM, Exp1-3, read-out: Percent HTRF Signal): 91.7% | remaining activity at 3.2 µM (C. auris Bdf1 BD1; CauBD1, 24c 3.20 microM, Exp1-3, read-out: Percent HTRF Signal): 84.9% | remaining activity at 8 µM (C. auris Bdf1 BD1; CauBD1, 24c 8.00 microM, Exp1-3, read-out: Percent HTRF Signal): 83.4% | remaining activity at 20 µM (C. auris Bdf1 BD1; CauBD1, 24c 20.00 microM, Exp1-3, read-out: Percent HTRF Signal): 64.7% | inhibition of Bdf1 BD1 from C. auris (C. auris Bdf1 BD1; HTRF, Fig S9C): weakly inhibited | remaining activity at 0.0021 µM (C. auris Bdf1 BD2; 24c 0.0021 microM): 100% | remaining activity at 0.0052 µM (C. auris Bdf1 BD2; 24c 0.0052 microM): 94.4% | remaining activity at 0.013 µM (C. auris Bdf1 BD2; 24c 0.013 microM): 99.2% | remaining activity at 0.033 µM (C. auris Bdf1 BD2; 24c 0.033 microM): 100% | remaining activity at 0.082 µM (C. auris Bdf1 BD2; 24c 0.082 microM): 106% | remaining activity at 0.2 µM (C. auris Bdf1 BD2; 24c 0.20 microM): 105% | remaining activity at […] (C. auris Bdf1 BD2; 24c 0.51 microM): 99.5% | remaining activity at 1.28 µM (C. auris Bdf1 BD2; 24c 1.28 microM): 100% | remaining activity at 3.2 µM (C. auris Bdf1 BD2; 24c 3.20 microM): 98.7% | remaining activity at 8 µM (C. auris Bdf1 BD2; 24c 8.00 microM): 84%
